Literature values, collected in US20220273822A1, “ANIMAL MODEL OF IDIOPATHIC PULMONARY FIBROSIS, ITS CONSTRUCTION METHOD AND USE” (National Institute of Biological Sciences, Beijing, priority 2019, published 2022).

Details: IPF

COC(=O)c1ccc2c(c1)NC(=O)/C2=C(\Nc1ccc(N(C)C(=O)CN2CCN(C)CC2)cc1)c1ccccc1 [nintedanib]
mortality: tendency of reducing mortality
survival time: failed to show significantly increased survival time

Cc1ccc(=O)n(-c2ccccc2)c1 [pirfenidone]
mortality: tendency of reducing mortality
survival time: failed to show significantly increased survival time
